The term IC50 denotes the midpoint of a concentration-inhibition curve.

The values below come from US20230081426A1, “COMPOUNDS AND METHODS FOR KRAS MODULATION AND INDICATIONS THEREFOR” (Plexxikon Inc., priority 2020, published 2023).

In experiment [1] the target is T1, G12D-mutant human KRAS (amino acid residues 1-188) (Homo sapiens, UniProt P01116, G12D).
T1 construct: G12D or G12C-mutant human KRAS (amino acid residues 1-188) with FLAG tag; made in house; host or cells: E. coli
In words: KRAS Binding Disruption Assay (AlphaScreen; biotinylated KRpep-2d analogue or RAF1-RBD), G12D. Conditions: KRAS G12D; geometric mean; read-out: KRAS GMean IC50 (uM) MUTATION: G12D. The method in brief: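 AlphaScreen readout: signal falls as compound displaces biotinylated KRpep-2d analogue or RAF1-RBD from mutant KRAS. Both partners at 5-20 nM, 1 h binding at 25° C, then 10 μg/mL Anti-Flag acceptor and streptavidin donor beads for 1 h. IC50 by nonlinear regression of % inhibition.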
On the technique in general: Alpha assays give light when donor and acceptor beads are brought close together.

Experiment [2] concerns the target T2, G12V-mutant human KRAS (amino acid residues 1-188) (Homo sapiens, UniProt P01116, G12V).
T2 construct: G12V-mutant human KRAS (amino acid residues 1-188) with FLAG tag was purified from E. coli; made in house; host or cells: E. coli
In words: KRAS Binding Competition Assay (AlphaScreen; biotinylated KRpep-2d analogue), G12V. Conditions: geometric mean, read-out: KRAS GMean IC50 (uM) MUTATION: G12V.

As to `CN1CCC[C@H]1COc1nc(N2C[C@H]3CC[C@@H](C2)N3CC(=O)N2CCOCC2)c2ccc(-c3cc(O)cc4ccccc34)c(F)c2n1` [P-0428, 2-((1R,5S)-3-(8-fluoro-7-(3-hydroxynaphthalen-1-yl)-2-(((S)-1-methylpyrrolidin-2-yl)methoxy)quinazolin-4-yl)-3,8-diazabicyclo[3.2.1]octan-8-yl)-1-morpholinoethan-1-one], the IC50 in experiment [1] was 0.0001 to 10 µM; in experiment [2], 100 to 1000 µM.
Regarding `CN1CCC[C@H]1COc1nc(N2C[C@H]3CC[C@@H](C2)N3C2CNC2)c2ccc(-c3cc(O)cc4ccccc34)c(F)c2n1` [P-0430, 4-(4-((1R,5S)-8-(azetidin-3-yl)-3,8-diazabicyclo[3.2.1]octan-3-yl)-8-fluoro-2-(((S)-1-methylpyrrolidin-2-yl)methoxy)quinazolin-7-yl)naphthalen-2-ol], the 50% inhibitory concentration (IC50) is 10 to 100 µM in experiment [1] and 100 to 1000 µM in experiment [2].
Take `OCCc1nc(N2C[C@H]3CC[C@@H](C2)N3)c2ccc(-c3cc(O)cc4ccccc34)c(F)c2n1` [P-0431, 4-(4-((1R,5S)-3,8-diazabicyclo[3.2.1]octan-3-yl)-8-fluoro-2-(2-hydroxyethyl)quinazolin-7-yl)naphthalen-2-ol]: the IC50 in experiment [1] was 0.0001 to 10 µM; in experiment [2] it was 10 to 100 µM.
For `CS(=O)(=O)CC(=O)N1[C@@H]2CC[C@H]1CN(c1nc(OCC34CCCN3CCC4)nc3c(F)c(-c4cc(O)cc5ccccc45)ccc13)C2` [P-0432, 1-((1R,5S)-3-(8-fluoro-7-(3-hydroxynaphthalen-1-yl)-2-((tetrahydro-1H-pyrrolizin-7a(5H)-yl)methoxy)quinazolin-4-yl)-3,8-diazabicyclo[3.2.1]octan-8-yl)-2-(methylsulfonyl)ethan-1-one], in that order: 0.0001 to 10 µM and 0.0001 to 10 µM.
Take `O=C(Cc1n[nH]c2ccccc12)N1[C@@H]2CC[C@H]1CN(c1nc(OCC34CCCN3CCC4)nc3c(F)c(-c4cc(O)cc5ccccc45)ccc13)C2` [P-0433, 1-((1R,5S)-3-(8-fluoro-7-(3-hydroxynaphthalen-1-yl)-2-((tetrahydro-1H-pyrrolizin-7a(5H)-yl)methoxy)quinazolin-4-yl)-3,8-diazabicyclo[3.2.1]octan-8-yl)-2-(1H-indazol-3-yl)ethan-1-one]: the IC50 in experiment [1] and in experiment [2] was 0.0001 to 10 µM each time.
For `CN1CCN(CCCS(=O)(=O)N2[C@@H]3CC[C@H]2CN(c2nc(OC[C@@H]4CCCN4C)nc4c(F)c(-c5cc(O)cc6ccccc56)ccc24)C3)CC1` [P-0434, 4-(8-fluoro-4-((1R,5S)-8-((3-(4-methylpiperazin-1-yl)propyl)sulfonyl)-3,8-diazabicyclo[3.2.1]octan-3-yl)-2-(((S)-1-methylpyrrolidin-2-yl)methoxy)quinazolin-7-yl)naphthalen-2-ol], the IC50 in experiment [1] is 0.0001 to 10 µM; in experiment [2], 10 to 100 µM.
For `Cc1cccc2c1N(c1ccc3c(N4C[C@H]5CC[C@@H](C4)N5)nc(OC[C@@H]4CCCN4C)nc3c1F)CCC2` [P-0435, 4-((1R,5S)-3,8-diazabicyclo[3.2.1]octan-3-yl)-8-fluoro-7-(8-methyl-3,4-dihydroquinolin-1(2H)-yl)-2-(((S)-1-methylpyrrolidin-2-yl)methoxy)quinazoline], the IC50 fell in the range of 0.0001 to 10 µM in experiment [1] and 10 to 100 µM in experiment [2].
Consider `Cc1cccc2c1N(c1ncc3c(N4C[C@H]5CC[C@@H](C4)N5)nc(OC[C@@H]4CCCN4C)nc3c1F)CC(O)C2` (stereo partly drawn) [P-0436, 1-(4-((1R,5S)-3,8-diazabicyclo[3.2.1]octan-3-yl)-8-fluoro-2-(((S)-1-methylpyrrolidin-2-yl)methoxy)pyrido[4,3-d]pyrimidin-7-yl)-8-methyl-1,2,3,4-tetrahydroquinolin-3-ol], for which the half-maximal inhibitory concentration (IC50) in experiment [1] lay in the range of 0.0001 to 10 µM; in experiment [2] it was 100 to 1000 µM.
For `Cc1cccc2c(Nc3ccc4c(N5C[C@H]6CC[C@@H](C5)N6)nc(OC[C@@H]5CCCN5C)nc4c3F)n[nH]c12` [P-0437, 4-((1R,5S)-3,8-diazabicyclo[3.2.1]octan-3-yl)-8-fluoro-N-(7-methyl-1H-indazol-3-yl)-2-(((S)-1-methylpyrrolidin-2-yl)methoxy)quinazolin-7-amine], the IC50 in experiment [1] lay within 10 to 100 µM; in experiment [2], 100 to 1000 µM.
Regarding `CN1CCC[C@H]1COc1nc(N2C[C@H]3CC[C@@H](C2)N3)c2ccc(Nc3n[nH]c4c(F)cccc34)c(F)c2n1` [P-0438, 4-((1R,5S)-3,8-diazabicyclo[3.2.1]octan-3-yl)-8-fluoro-N-(7-fluoro-1H-indazol-3-yl)-2-(((S)-1-methylpyrrolidin-2-yl)methoxy)quinazolin-7-amine], the IC50 in experiment [1] and in experiment [2] was 10 to 100 µM throughout.
For the compound `Oc1cc(-c2ccc3c(N4C[C@H]5CC[C@@H](C4)N5)nc(CCN4CCCC4)nc3c2F)c2ccccc2c1` [P-0439, 4-(4-((1R,5S)-3,8-diazabicyclo[3.2.1]octan-3-yl)-8-fluoro-2-(2-(pyrrolidin-1-yl)ethyl)quinazolin-7-yl)naphthalen-2-ol], the IC50 in experiment [1] fell in the range of 0.0001 to 10 µM; in experiment [2], 10 to 100 µM.
As for `C[C@H]1CCCN1CCc1nc(N2C[C@H]3CC[C@@H](C2)N3)c2ccc(-c3cc(O)cc4ccccc34)c(F)c2n1` [P-0440, 4-(4-((1R,5S)-3,8-diazabicyclo[3.2.1]octan-3-yl)-8-fluoro-2-(2-((S)-2-methylpyrrolidin-1-yl)ethyl)quinazolin-7-yl)naphthalen-2-ol], the results for the IC50 in experiment [1] and in experiment [2] were 0.0001 to 10 µM and 10 to 100 µM, respectively.
Regarding `Fc1cc2c(N3C[C@H]4CC[C@@H](C3)N4)nc(OCC34CCCN3CCC4)nc2c(F)c1-c1c[nH]c2ccc(Cl)c(F)c12` [P-0441, 4-((1R,5S)-3,8-diazabicyclo[3.2.1]octan-3-yl)-7-(5-chloro-4-fluoro-1H-indol-3-yl)-6,8-difluoro-2-((tetrahydro-1H-pyrrolizin-7a(5H)-yl)methoxy)quinazoline], the half-inhibitory concentration (IC50) in experiment [1] and in experiment [2] was 0.0001 to 10 µM throughout.
In the case of `Cc1cccc2cccc(-c3ccc4c(N5C[C@H]6CC[C@@H](C5)N6C(=O)CC#N)nc(OCC56CCCN5CCC6)nc4c3F)c12` [P-0442, 3-((1R,5S)-3-(8-fluoro-7-(8-methylnaphthalen-1-yl)-2-((tetrahydro-1H-pyrrolizin-7a(5H)-yl)methoxy)quinazolin-4-yl)-3,8-diazabicyclo[3.2.1]octan-8-yl)-3-oxopropanenitrile], the IC50 in experiment [1] fell in the range of 10 to 100 µM; in experiment [2], 0.0001 to 10 µM.
For `CN1CCC[C@H]1COc1nc(N2C[C@H]3CC[C@@H](C2)N3)c2cnc(N3CC(=O)Nc4cccc(Cl)c43)c(F)c2n1` [P-0444, 4-(4-((1R,5S)-3,8-diazabicyclo[3.2.1]octan-3-yl)-8-fluoro-2-(((S)-1-methylpyrrolidin-2-yl)methoxy)pyrido[4,3-d]pyrimidin-7-yl)-5-chloro-3,4-dihydroquinoxalin-2(1H)-one], in that order: 10 to 100 µM and 100 to 1000 µM.
With `CN(C)Cc1nc(N2C[C@H]3CC[C@@H](C2)N3)c2cc(Cl)c(-c3c(O)cccc3F)c(F)c2n1` [P-0445, 2-(4-((1R,5S)-3,8-diazabicyclo[3.2.1]octan-3-yl)-6-chloro-2-((dimethylamino)methyl)-8-fluoroquinazolin-7-yl)-3-fluorophenol], the IC50 in experiment [1] and in experiment [2] was 10 to 100 µM throughout.
In the case of `O=C1c2ccccc2C(=O)N1Cc1nc(N2C[C@H]3CC[C@@H](C2)N3)c2cc(Cl)c(-c3c(O)cccc3F)c(F)c2n1` [P-0446, 2-((4-((1R,5S)-3,8-diazabicyclo[3.2.1]octan-3-yl)-6-chloro-8-fluoro-7-(2-fluoro-6-hydroxyphenyl)quinazolin-2-yl)methyl)isoindoline-1,3-dione], the 50% inhibitory concentration (IC50) in experiment [1] and in experiment [2] was 10 to 100 µM in each case.
On to `CN1CCC[C@H]1COc1nc(N2C[C@H]3CC[C@@H](C2)N3C(=O)CC2SC(=O)NC2=O)c2cc(Cl)c(-c3cc(O)cc4ccccc34)c(F)c2n1` (stereo partly drawn) [P-0447, 5-(2-((1R,5S)-3-(6-chloro-8-fluoro-7-(3-hydroxynaphthalen-1-yl)-2-(((S)-1-methylpyrrolidin-2-yl)methoxy)quinazolin-4-yl)-3,8-diazabicyclo[3.2.1]octan-8-yl)-2-oxoethyl)thiazolidine-2,4-dione], for which the 50% inhibitory concentration (IC50) in experiment [1] and in experiment [2] was 0.0001 to 10 µM each time.
As for `Fc1cc2c(N3C[C@H]4CC[C@@H](C3)N4)nc(OCC34CCCN3CCC4)nc2c(F)c1-c1c[nH]c2cccc(F)c12` [P-0448, 4-((1R,5S)-3,8-diazabicyclo[3.2.1]octan-3-yl)-6,8-difluoro-7-(4-fluoro-1H-indol-3-yl)-2-((tetrahydro-1H-pyrrolizin-7a(5H)-yl)methoxy)quinazoline], the values for the IC50 in experiment [1] and in experiment [2] were 0.0001 to 10 µM and 10 to 100 µM, respectively.
Turning to `CC(C(=O)N1[C@@H]2CC[C@H]1CN(c1nc(OCC34CCCN3CCC4)nc3c(F)c(-c4cc(O)cc5ccccc45)ccc13)C2)S(N)(=O)=O` (stereo partly drawn) [P-0449, 1-((1R,5S)-3-(8-fluoro-7-(3-hydroxynaphthalen-1-yl)-2-((tetrahydro-1H-pyrrolizin-7a(5H)-yl)methoxy)quinazolin-4-yl)-3,8-diazabicyclo[3.2.1]octan-8-yl)-1-oxopropane-2-sulfonamide], the IC50 in experiment [1] and in experiment [2] was 0.0001 to 10 µM in each case.
For the compound `COC(=N)CC(=O)N1[C@@H]2CC[C@H]1CN(c1nc(OC[C@@H]3CCCN3C)nc3c(F)c(-c4cc(O)cc5ccccc45)c(Cl)cc13)C2` [P-0450, methyl 3-((1R,5S)-3-(6-chloro-8-fluoro-7-(3-hydroxynaphthalen-1-yl)-2-(((S)-1-methylpyrrolidin-2-yl)methoxy)quinazolin-4-yl)-3,8-diazabicyclo[3.2.1]octan-8-yl)-3-oxopropanimidate], the half-maximal inhibitory concentration (IC50) in experiment [1] and in experiment [2] was 10 to 100 µM each time.
